Results on 26 compounds are retold here after patent publication US7759366B2 (Sanofi-Aventis, priority 2006, dated 2010).

The target of experiment [1] is T1, hCB1R (Homo sapiens, UniProt P21554). The experiment can be described thus: Binding to the CB1 receptor ([3H]-SR141716A displacement). Here is the method:
Binding to the CB1 Receptor:
Test compounds: The compounds (3 μl, 10 mM, 100% DMSO), pipetted into 96-well PP microtiter plates, were diluted with 27 μl of 100% DMSO (dimethyl sulfoxide). Proceeding from this solution, further 3-fold dilution steps were undertaken by transferring 10 μl in each case to a new PP microtiter plate and adding a further 20 μl of 100% DMSO. In each case 6 μl of these solutions were transferred into new 96-well PP microtiter plates and made up with 144 μl of assay buffer. The end concentrations ranged from 10 μM to 0.005 μM. Negative control: AM 251, dissolved in assay buffer with 1% DMSO, was added to the dilution series in the microtiter plates as a control. The end concentration was 1 μM. Blank control: assay buffer with 1% DMSO was added to the dilution series of the microtiter plates as a blank control.
Summary of the Assay Parameters:
High control: ^3H binding without addition of the compound
Low control: ^3H binding in the presence of 1 μM AM 251
The values were calculated using the corrected raw data.
The values reported were obtained as average values of a double determination. The IC50 values were calculated from the measurements with the program Xlfit, formula 205. Ki values were obtained from the IC50 and Kd values utilizing the Cheng-Prusoff equation: […]
Literature: Cheng, Y.-C., and Prusoff, W. H. (1973) Biochem. Pharmacol 22, 3099-3108

The target of experiment [2] is T1, hCB1R. The experiment can be described thus: In vitro functional assay (FLIPR, intracellular Ca2+) with recombinant HEK293 cells, CB1. The format is cell-based. More on the design: expressed in transfected cells; host or cells: HEK293. Conditions: recombinant HEK293 cells expressing CB1 and Galpha16; 20 min preincubation, then reference agonist; Ca2+ change; read-out: hCB1R: FLIPR; IC50. The source says: In Vitro Functional Assays with Recombinant Cells:

Setting [3] is: CHO-K1/cannabinoid CB1 protein 2 μg/well, [3H]-SR141716A 0.5 nM, Ki from IC50 by Cheng-Prusoff, average of double determination, read-out: hCB1R, binding Ki.

Where two headings read alike, the source gives them in different places.

T1 sequence (P21554 whole entry): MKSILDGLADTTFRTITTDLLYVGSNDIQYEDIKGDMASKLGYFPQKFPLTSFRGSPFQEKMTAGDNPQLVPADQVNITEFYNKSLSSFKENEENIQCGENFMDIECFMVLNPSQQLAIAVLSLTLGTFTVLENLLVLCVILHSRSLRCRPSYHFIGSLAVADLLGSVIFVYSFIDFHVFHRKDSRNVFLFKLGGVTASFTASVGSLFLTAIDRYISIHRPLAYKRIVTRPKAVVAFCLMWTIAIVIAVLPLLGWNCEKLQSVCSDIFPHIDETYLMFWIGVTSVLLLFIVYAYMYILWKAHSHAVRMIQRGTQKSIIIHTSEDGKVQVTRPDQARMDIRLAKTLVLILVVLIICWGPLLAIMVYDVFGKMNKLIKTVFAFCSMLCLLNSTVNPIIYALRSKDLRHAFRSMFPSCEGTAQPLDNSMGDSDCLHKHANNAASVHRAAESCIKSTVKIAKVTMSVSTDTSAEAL

In experiment [1], `COc1ccc(Nc2ccccc2)c(CN2C(=O)N(c3ccc(C#N)c(C(F)(F)F)c3)C(=O)C2(C)C)c1` [Example 6, 4-[3-(5-Methoxy-2-phenylaminobenzyl)-4,4-dimethyl-2,5-dioxoimidazolidin-1-yl]-2-trifluoromethylbenzonitrile] had a Ki of 21 nM. Still for that read-out and setting: under `COc1ccc(Nc2ccc(F)cc2)c(CN2C(=O)N(c3ccc(C#N)c(C(F)(F)F)c3)C(=O)C2(C)C)c1` [Example 7, 4-{3-[2-(4-fluorophenylamino)-5-methoxybenzyl]-4,4-dimethyl-2,5-dioxoimidazolidin-1-yl}-2-trifluoromethylbenzonitrile] stands 15 nM; under `COc1ccc(Nc2ccc(C(F)(F)F)cc2)c(CN2C(=O)N(c3ccc(C#N)c(C(F)(F)F)c3)C(=O)C2(C)C)c1` [Example 8, 4-{3-[5-methoxy-2-(4-trifluoromethylphenylamino)benzyl]-4,4-dimethyl-2,5-dioxoimidazolidin-1-yl}-2-trifluoromethylbenzonitrile], 15 nM; under `COc1ccc(Nc2ccc(Cl)cc2)c(CN2C(=O)N(c3ccc(C#N)c(C(F)(F)F)c3)C(=O)C2(C)C)c1` [Example 9, 4-{3-[2-(4-chlorophenylamino)-5-methoxybenzyl]-4,4-dimethyl-2,5-dioxoimidazolidin-1-yl}-2-trifluoromethylbenzonitrile], 13 nM. In experiment [1], `COc1ccc(Nc2ccc(C#N)c(C(F)(F)F)c2)c(CN2C(=O)N(c3ccc(C#N)c(C(F)(F)F)c3)C(=O)C2(C)C)c1` [Example 10, 4-{3-[2-(4-cyano-3-trifluoromethylphenylamino)-5-methoxybenzyl]-4,4-dimethyl-2,5-dioxoimidazolidin-1-yl}-2-trifluoromethylbenzonitrile] displayed a Ki of 24 nM. For `CC1(C)C(=O)N(c2ccc(C#N)c(C(F)(F)F)c2)C(=O)N1Cc1ccccc1Nc1ccc(OC(F)(F)F)cc1` [Example 12, 4-{3-[2-(4-trifluoromethoxy-phenylamino)benzyl]-4,4-dimethyl-2,5-dioxoimidazolidin-1-yl}-2-trifluoromethylbenzonitrile], the Ki in experiment [1] was determined as 0.9 nM. In experiment [1], `CC1(C)C(=O)N(c2ccc(C#N)c(C(F)(F)F)c2)C(=O)N1Cc1ccccc1Nc1ccc(Cl)cc1Cl` [Example 13, 4-{3-[2-(2,4-dichlorophenylamino)benzyl]-4,4-dimethyl-2,5-dioxoimidazolidin-1-yl}-2-trifluoromethylbenzonitrile] came in with a Ki of 0.9 nM.

Turning to `CC1(C)C(=O)N(c2ccc(C#N)c(C(F)(F)F)c2)C(=O)N1Cc1cc(F)ccc1Nc1ccc(F)cc1` [Example 15, 4-{3-[5-Fluoro-2-(4-fluorophenylamino)benzyl]-4,4-dimethyl-2,5-dioxoimidazolidin-1-yl}-2-trifluoromethylbenzonitrile], the Ki in experiment [1] amounted to 2 nM. `CC1(C)C(=O)N(c2ccc(C#N)c(C(F)(F)F)c2)C(=O)N1Cc1cc(F)ccc1Nc1ccc(Cl)cc1` [Example 16, 4-{3-[2-(4-chlorophenylamino)-5-fluorobenzyl]-4,4-dimethyl-2,5-dioxoimidazolidin-1-yl}-2-trifluoromethylbenzonitrile] came in with a Ki in experiment [1] of 2 nM.

For `CC1(C)C(=O)N(c2ccc(C#N)c(C(F)(F)F)c2)C(=O)N1Cc1cc(C(F)(F)F)ccc1Nc1ccc(F)cc1` [Example 17, 4-{3-[2-(4-Fluorophenylamino)-5-trifluoromethylbenzyl]-4,4-dimethyl-2,5-dioxoimidazolidin-1-yl}-2-trifluoromethylbenzonitrile], in experiment [1], the Ki stood at 3 nM. In turn, `CC1(C)C(=O)N(c2ccc(C#N)c(C(F)(F)F)c2)C(=O)N1Cc1cc(F)ccc1Nc1ccccc1` [Example 18, 4-[3-(5-fluoro-2-phenylaminobenzyl)-4,4-dimethyl-2,5-dioxoimidazolidin-1-yl]-2-trifluoromethylbenzonitrile] yielded a Ki in experiment [1] of 5 nM. The same measure, in the same setting: under `CC1(C)C(=O)N(c2ccc(C#N)c(C(F)(F)F)c2)C(=O)N1Cc1cc(C(F)(F)F)ccc1Nc1ccc(Cl)cc1` [Example 19, 4-{3-[2-(4-chlorophenylamino)-5-trifluoromethylbenzyl]-4,4-dimethyl-2,5-dioxoimidazolidin-1-yl}-2-trifluoromethylbenzonitrile] stands 5 nM. On the same count and under the same terms, under `CC1(C)C(=O)N(c2ccc(F)c(C(F)(F)F)c2)C(=O)N1Cc1ccccc1Nc1ccccc1` [Example 23, 3-(4-Fluoro-3-trifluoromethylphenyl)-5,5-dimethyl-1-(2-phenylaminobenzyl)imidazolidin-2,4-dione] stands 10 nM. With `CC1(C)C(=O)N(c2ccc(F)c(C(F)(F)F)c2)C(=O)N1Cc1ccccc1Nc1ccc(F)cc1` [Example 24, 1-[2-(4-fluorophenylamino)benzyl]-3-(4-fluoro-3-trifluoromethylphenyl)-5,5-dimethylimidazolidine-2,4-dione], the Ki in experiment [1] (setting [3]) worked out at 11 nM. Still for that read-out and setting: under `CC1(C)C(=O)N(c2ccc(F)c(C(F)(F)F)c2)C(=O)N1Cc1ccccc1Nc1ccc(Cl)cc1` [Example 25, 1-[2-(4-chlorophenylamino)benzyl]-3-(4-fluoro-3-trifluoromethylphenyl)-5,5-dimethylimidazolidine-2,4-dione] stands 6 nM. Consider `CC1(C)C(=O)N(c2ccc(C#N)c(C(F)(F)F)c2)C(=O)N1Cc1ccccc1Nc1ccc(S(F)(F)(F)(F)F)cc1` [Example 26, 4-{3-[2-(4-pentafluorosulfanylphenylamino)benzyl]-4,4-dimethyl-2,5-dioxoimidazolidin-1-yl}-2-trifluoromethylbenzonitrile], for which the Ki in experiment [1] stood at 39 nM. `CC(C(=O)O)(C(=O)O)c1ccc(Nc2ccccc2CN2C(=O)N(c3ccc(C#N)c(C(F)(F)F)c3)C(=O)C2(C)C)cc1` [Example 233, 2-(4-{2-[3-(4-Cyano-3-trifluoromethylphenyl)-5,5-dimethyl-2,4-dioxoimidazolidin-1-ylmethyl]phenylamino}phenyl)-2-methylmalonic acid]: the IC50 in experiment [2] amounted to 22 nM. Turning to `CC1(C)C(=O)N(c2ccc(C#N)c(C(F)(F)F)c2)C(=O)N1Cc1ccccc1Nc1ccc(C(C(=O)O)C(=O)O)cc1` [Example 238, 2-(4-{2-[3-(4-cyano-3-trifluoromethylphenyl)-5,5-dimethyl-2,4-dioxoimidazolidin-1-ylmethyl]phenylamino}phenyl)malonic acid], the IC50 in experiment [2] stood at 10 nM.

As for `CC1(C)C(=O)N(c2ccc(F)c(C(F)(F)F)c2)C(=O)N1Cc1ccc(F)cc1Nc1ccc2c(c1)C(=O)CCO2` [Example 239, 1-[4-fluoro-2-(4-oxochroman-6-ylamino)benzyl]-3-(4-fluoro-3-trifluoromethylphenyl)-5,5-dimethylimidazolidine-2,4-dione], the IC50 in experiment [2] amounted to 103 nM.

Regarding `CC1(C)C(=O)N(c2ccc(F)c(C(F)(F)F)c2)C(=O)N1Cc1ccc(F)cc1Nc1ccc(NS(C)(=O)=O)cc1` [Example 240, N-(4-{5-Fluoro-2-[3-(4-fluoro-3-trifluoromethylphenyl)-5,5-dimethyl-2,4-dioxoimidazolidin-1-ylmethyl]phenylamino}phenyl)methanesulfonamide], the IC50 in experiment [2] was 11 nM. On to `CC1(C)C(=O)N(c2ccc(C#N)c(C(F)(F)F)c2)C(=O)N1Cc1ccccc1Nc1ccc(C(=O)O)c(O)c1` [Example 243], for which the IC50 in experiment [2] is 99 nM. As for `CC1(C)C(=O)N(c2ccc(C#N)c(C(F)(F)F)c2)C(=O)N1Cc1ccccc1Nc1cnc(O)nc1O` [Example 246, 4-{3-[2-(2,4-Dihydroxypyrimidin-5-ylamino)benzyl]-4,4-dimethyl-2,5-dioxoimidazolidin-1-yl}-2-trifluoromethylbenzonitrile], the IC50 in experiment [2] was 7 nM. As for `CC1(C)C(=O)N(c2ccc(C#N)c(-c3ccc(F)cc3)c2)C(=O)N1Cc1ccc(F)cc1Nc1ccc(F)cc1F` [Example 253, 5-{3-[2-(2,4-Difluorophenylamino)-4-fluorobenzyl]-4,4-dimethyl-2,5-dioxoimidazolidin-1-yl}-4′-fluorobiphenyl-2-carbonitrile], in experiment [2], the IC50 came to 29 nM. With `CC1(C)C(=O)N(c2ccc(F)c(C(F)(F)F)c2)C(=O)N1Cc1ccc(F)cc1Nc1ccc(F)nc1` [Example 254, 1-[4-Fluoro-2-(6-fluoropyridin-3-ylamino)benzyl]-3-(4-fluoro-3-trifluoromethylphenyl)-5,5-dimethylimidazolidine-2,4-dione], the IC50 in experiment [2] is 2 nM. Same read-out and setting: under `COC(=O)c1ccc(Nc2cc(F)ccc2CN2C(=O)N(c3ccc(F)c(C(F)(F)F)c3)C(=O)C2(C)C)cn1` [Example 255, Methyl 5-{5-fluoro-2-[3-(4-fluoro-3-trifluoromethylphenyl)-5,5-dimethyl-2,4-dioxoimidazolidin-1-ylmethyl]phenylamino}pyridine-2-carboxylate] stands 28 nM.

`CC1(C)C(=O)N(c2ccc(C#N)c(-c3ccc(F)cc3)c2)C(=O)N1Cc1ccc(F)cc1Nc1ccc(C(=O)O)cc1` [Example 258, 4-{2-[3-(6-Cyano-4′-fluorobiphenyl-3-yl)-5,5-dimethyl-2,4-dioxoimidazolidin-1-ylmethyl]-5-fluorophenylamino}benzoic acid]: the IC50 in experiment [2] came to 31 nM.
